Measured values taken from patent US20090246134A1, “COMPOSITIONS AND METHODS FOR MODULATING GATED ION CHANNELS” (PainCeptor Pharma Corporation, priority 2007, published 2009).

Legend:
[1] = test system: native sensory-neuron gated ion channels; experiment: Patch-clamp electrophysiology of sensory neurons in primary culture; assay type: cell-based, rat; details: n=3
Description: This example describes another in vitro assessment of the inhibitory activity of the compounds of the present invention utilizing patch-clamp electrophysiology of sensory neurons in primary culture.
Sensory neurons can be isolated and cultured in vitro from different animal species. The most widely used protocols use sensory neurons isolated from neonatal (Eckert, et al. (1997) J Neurosci Methods 77:183-190) and embryonic (Vasko, et al. (1994) J Neurosci 14:4987-4997) rat. […] Electrophysiology is performed similarly as described above in Example 2. In the voltage-clamp mode, trans-membrane currents are recorded. Compounds A and H at 1 μM inhibit the pH 6.5-induced inward current. In the current-clamp mode, change in the trans-membrane potential are recorded. Under acidic conditions (e.g., pH 6.5) the membrane depolarizes, leading to the firing of action potentials. Compounds A and H at 1 μM inhibit the acid-induced membrane depolarization and reduce the ensuing rate of action potential firing.

[2] = test system: formalin-induced pain in Sprague-Dawley rats; experiment: Formalin model of acute tonic pain; assay type: in vivo, rat; details: rat, in vivo
Method: Male Sprague-Dawley rats are housed together in groups of three animals under standard conditions with unrestricted access to food and water. All experiments are conducted according to the ethical guidelines for investigations of experimental pain in conscious animals (Zimmerman, 1983)
Assessment of formalin-induced flinching behavior in normal, uninjured rats (body weight 150-180 g) was made with the use of an Automated Nociception Analyser (University of California, San Diego, USA). Briefly, this involved placing a small C-shaped metal band (10 mm wide×27 mm long) on the hindpaw of the rat to be tested. The rats (four rats were included in each testing session) were then placed in a cylindrical plexiglass observation chamber (diameter 30.5 cm and height 15 cm) for 20 min for adaptation purposes prior to being administered drug or vehicle according to the experimental paradigm being followed. After adaptation, individual rats were then gently restrained and formalin (5% in saline, 50 μl, s.c.) was injected into the plantar surface of the hindpaw using a 27 G needle. Rats were then returned to their separate observation chambers, each of which were in turn situated upon an enclosed detection device consisting of two electromagnetic coils designed to produce an electromagnetic field in which movement of the metal band could be detected. The analogue signal was then digitised and a software algorithm (LabView) applied to enable discrimination of flinching behaviour from other paw movements. A sampling interval of 1 min was used and on the basis of the resulting response patterns 5 phases of nociceptive behaviour were identified and scored: first phase (P1; 0-5 min), interphase (Int; 6-15 min), second phase (P2; […]), phase 2A (P2A; 16-40 min) and phase 2B (P2B; 41-60 min).
Nociceptive behavior was also determined manually every 5 min by measuring the amount of time spent in each of four behavioral categories: 0, treatment of the injected hindpaw is indistinguishable from that of the contralateral paw; 1, the injected paw has little or no weight placed on it; 2, the injected paw is elevated and is not in contact with any surface; 3, the injected paw is licked, bitten, or shaken. A weighted nociceptive score, ranging from 0 to 3 was calculated by multiplying the time spent in each category by the category weight, summing these products, and dividing by the total time for each 5 min block of time. (Coderre et al., Pain 1993; 54: 43). On the basis of the resulting response patterns, 2 phases of nociceptive behavior were identified and scored: first phase (P1; 0-5 min), interphase (Int; 6-15 min), second phase (P2; […]), phase 2A (P2A; 16-40 min) and phase 2B (P2B; 41-60 min).
Statistical analysis was performed using Prism™ 4.01 software package (GraphPad, San Diego, Calif., USA). The difference in response levels between treatment groups and control vehicle group was analyzed using an ANOVA followed by Bonferroni's method for post-hoc pair-wise comparisons. A p value<0.05 was considered to be significant
The effect of Compound A on pain induced by intraplantar formalin injection was investigated. Compound A was administered i.p. 30 min. before the formalin. Compound A was able to reduce the total pain score behavior (flinching, licking, biting) in phase 1 and 2 of the formalin test.

[3] = test system: CFA-induced change in weight bearing in Sprague-Dawley rats; experiment: CFA model of chronic inflammatory pain, hindpaw weight bearing; assay type: in vivo, rat; details: 24 h after CFA; 60 min after drug; Compound A 5, 10, 20 mg/kg i.p.; Compound H 10, 30, 60 mg/kg; morphine 3, 6, 10 mg/kg; n=7-8
Method: Rats (body weight 260-300 g) were given a s.c. injection of CFA (50% in saline, 100 μl, Sigma) into the plantar surface of the hindpaw under brief halothane anaesthesia. After 24 h, they were then tested for hindpaw weight bearing responses, as assessed using an Incapacitance Tester (Linton Instrumentation, UK), (Zhu et al., 2005). The instrument incorporates a dual channel scale that separately measures the weight of the animal distributed to each hindpaw. While normal rats distribute their body weight equally between the two hindpaws (50-50), the discrepancy of weight distribution between an injured and non-injured paw is a natural reflection of the discomfort level in the injured paw (nocifensive behavior). The rats were placed in the plastic chamber designed so that each hindpaw rested on a separate transducer pad. […] For each rat, three readings from each paw were taken and then averaged. Side-to-side weight bearing difference was calculated as the average of the absolute value of the difference between two hindpaws from three trials (right paw reading-left paw reading).
Hindpaw weight bearing responses were measured in male Sprague-Dawley rats for 2-3 days prior to being given a hindpaw injection of CFA. Twenty-four hours later baseline responses were measured and rats were then administered Compound A (5, 10 and 20 mg/kg, i.p.), Compound H (10, 30 and 60 mg/kg) and morphine (3, 6 and 10 mg/kg). Weight bearing responses were then measured at 30, 60 and 120 min after drug or vehicle injection (data shown at 60 min.). […] All groups n=7-8.

## CCN1CCc2c(-c3ccccc3)cc3c(c2C1)NC(=O)/C3=N/O [Compound H, 5-phenyl-6,7,8,9-tetrahydro-3-(hydroxyimino)-8-ethyl-1H-pyrrolo[3,2-h]isoquinoline-2(3H)-one]
[1]; current-clamp mode, 1 μM
  acid-induced membrane depolarization: inhibit
[1]; current-clamp mode, acidic conditions, 1 μM
  rate of action potential firing: reduce
[1]
  activity of native sensory-neuron gated ion channels: effectively modulate
[1]; voltage-clamp mode, 1 μM
  pH 6.5-induced inward current: inhibit
[2]
  acute tonic pain induced by formalin injection in the paw: block
[3]
  CFA-induced change in weight bearing compared with vehicle: marked dose-dependent attenuation
